In ChEMBL document CHEMBL1909046, “DrugMatrix in vitro pharmacology data”:
pIC50, pKi: −log10 of the molar value.

What was measured:
Cytochrome P450 1A2 = biological target: T1, Cytochrome P450 1A2 (Homo sapiens, UniProt P05177); details: bti-tn-5b1-4; note: in other assays of this panel Not Active means under 50% inhibition at 10 µM
T1 sequence (P05177 whole entry): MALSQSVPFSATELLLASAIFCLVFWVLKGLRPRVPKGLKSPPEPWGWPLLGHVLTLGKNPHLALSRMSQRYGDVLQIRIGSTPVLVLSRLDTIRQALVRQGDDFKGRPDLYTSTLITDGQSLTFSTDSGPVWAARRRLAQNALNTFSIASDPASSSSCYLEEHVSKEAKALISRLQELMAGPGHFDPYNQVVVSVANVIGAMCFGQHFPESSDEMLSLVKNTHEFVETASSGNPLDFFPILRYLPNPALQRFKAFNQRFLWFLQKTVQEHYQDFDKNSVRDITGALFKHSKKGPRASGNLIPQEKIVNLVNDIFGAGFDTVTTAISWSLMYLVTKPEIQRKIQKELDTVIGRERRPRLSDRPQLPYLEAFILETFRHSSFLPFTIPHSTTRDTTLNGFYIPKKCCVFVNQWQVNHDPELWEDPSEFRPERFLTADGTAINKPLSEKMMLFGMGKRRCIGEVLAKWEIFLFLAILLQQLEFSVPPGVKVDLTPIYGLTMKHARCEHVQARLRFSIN

Estrogen receptor = biological target: T2, Estrogen receptor (Homo sapiens, UniProt P03372); details: sf9; note: in other assays of this panel Not Active means under 50% inhibition at 10 µM
T2 sequence (P03372 whole entry): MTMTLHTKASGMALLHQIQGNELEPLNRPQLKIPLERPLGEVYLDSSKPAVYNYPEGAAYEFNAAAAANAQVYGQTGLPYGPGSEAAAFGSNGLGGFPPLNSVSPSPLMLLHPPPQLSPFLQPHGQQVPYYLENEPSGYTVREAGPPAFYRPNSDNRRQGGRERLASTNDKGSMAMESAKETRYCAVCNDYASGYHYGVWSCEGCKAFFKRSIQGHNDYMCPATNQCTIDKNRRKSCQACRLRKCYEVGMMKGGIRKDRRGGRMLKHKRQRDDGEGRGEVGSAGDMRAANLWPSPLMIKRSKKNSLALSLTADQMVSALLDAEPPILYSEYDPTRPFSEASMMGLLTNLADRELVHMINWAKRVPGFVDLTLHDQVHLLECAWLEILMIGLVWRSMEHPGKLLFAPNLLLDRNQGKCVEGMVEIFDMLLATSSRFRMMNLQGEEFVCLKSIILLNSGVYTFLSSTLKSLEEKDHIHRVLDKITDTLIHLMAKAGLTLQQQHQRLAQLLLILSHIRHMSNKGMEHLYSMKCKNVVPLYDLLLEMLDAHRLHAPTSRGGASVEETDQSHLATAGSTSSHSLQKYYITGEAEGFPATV

[1] = biological target: Sodium-dependent noradrenaline transporter (Homo sapiens, UniProt P23975); assay: DRUGMATRIX: Norepinephrine Transporter radioligand binding (ligand: [125I] RTI-55); format: cell membranes, MDCK, Membrane; details: Not Active = under 50% inhibition at 10 µM; for IC50: mdck
Cytochrome P450 3A4 = Cytochrome P450 3A4 (Homo sapiens, UniProt P08684); details: bti-tn-5b1-4; note: in other assays of this panel Not Active means under 50% inhibition at 10 µM
Cytochrome P450 2C9 = Cytochrome P450 2C9 (Homo sapiens, UniProt P11712); details: bti-tn-5b1-4; note: in other assays of this panel Not Active means under 50% inhibition at 10 µM
Cytochrome P450 2D6 = Cytochrome P450 2D6 (Homo sapiens, UniProt P10635); details: bti-tn-5b1-4; note: in other assays of this panel Not Active means under 50% inhibition at 10 µM
Glucocorticoid receptor = biological target: T3, Glucocorticoid receptor (Homo sapiens, UniProt P04150); details: hela s3; note: in other assays of this panel Not Active means under 50% inhibition at 10 µM
T3 sequence (P04150 whole entry): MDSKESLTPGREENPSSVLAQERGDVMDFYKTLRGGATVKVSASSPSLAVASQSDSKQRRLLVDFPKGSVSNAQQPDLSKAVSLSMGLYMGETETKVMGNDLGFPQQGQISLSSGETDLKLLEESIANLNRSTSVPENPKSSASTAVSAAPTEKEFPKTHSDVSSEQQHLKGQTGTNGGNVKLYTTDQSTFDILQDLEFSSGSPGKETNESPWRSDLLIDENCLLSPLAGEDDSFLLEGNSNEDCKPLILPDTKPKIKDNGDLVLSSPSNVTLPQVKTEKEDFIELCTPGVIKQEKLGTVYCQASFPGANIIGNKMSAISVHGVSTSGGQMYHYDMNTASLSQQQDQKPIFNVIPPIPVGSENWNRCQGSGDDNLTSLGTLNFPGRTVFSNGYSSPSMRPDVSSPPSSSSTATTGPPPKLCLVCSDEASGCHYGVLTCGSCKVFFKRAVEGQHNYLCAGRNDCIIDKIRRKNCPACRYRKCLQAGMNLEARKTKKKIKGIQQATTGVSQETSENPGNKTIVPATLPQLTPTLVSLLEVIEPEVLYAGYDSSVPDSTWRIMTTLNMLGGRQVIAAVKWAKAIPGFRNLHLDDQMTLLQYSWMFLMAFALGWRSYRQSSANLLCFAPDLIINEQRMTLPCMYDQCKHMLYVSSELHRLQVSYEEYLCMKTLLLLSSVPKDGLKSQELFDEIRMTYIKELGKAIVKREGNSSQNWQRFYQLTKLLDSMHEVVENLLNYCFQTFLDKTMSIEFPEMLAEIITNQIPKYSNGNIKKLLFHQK

[2] = biological target: T4, Alpha-1D adrenergic receptor (Homo sapiens, UniProt P25100); format: cell membranes, HEK293, Membrane; details: for IC50: hek293
T4 sequence (P25100 whole entry): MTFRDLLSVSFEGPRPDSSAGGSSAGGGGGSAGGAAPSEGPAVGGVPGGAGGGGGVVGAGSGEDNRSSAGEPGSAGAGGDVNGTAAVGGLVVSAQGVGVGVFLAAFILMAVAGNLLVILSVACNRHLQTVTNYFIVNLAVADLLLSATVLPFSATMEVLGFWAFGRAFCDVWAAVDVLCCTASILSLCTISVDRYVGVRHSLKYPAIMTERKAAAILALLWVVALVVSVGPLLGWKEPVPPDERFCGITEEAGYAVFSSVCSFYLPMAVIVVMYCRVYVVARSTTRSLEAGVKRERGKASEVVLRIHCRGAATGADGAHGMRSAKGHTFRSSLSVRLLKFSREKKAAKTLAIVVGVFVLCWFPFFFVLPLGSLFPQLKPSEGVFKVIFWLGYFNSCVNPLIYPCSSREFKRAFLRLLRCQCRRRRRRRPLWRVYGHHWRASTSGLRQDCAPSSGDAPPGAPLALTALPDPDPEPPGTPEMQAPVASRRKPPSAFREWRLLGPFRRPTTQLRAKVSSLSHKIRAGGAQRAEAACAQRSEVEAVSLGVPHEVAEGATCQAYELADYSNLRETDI

[3] = biological target: Voltage-gated inwardly rectifying potassium channel KCNH2 (Homo sapiens, UniProt Q12809); details: hek293; note: in other assays of this panel Not Active means under 50% inhibition at 10 µM
Estrogen receptor beta = Estrogen receptor beta (Homo sapiens, UniProt Q92731); details: sf9; note: in other assays of this panel Not Active means under 50% inhibition at 10 µM
Estrogen receptor beta, sequence (Q92731 whole entry): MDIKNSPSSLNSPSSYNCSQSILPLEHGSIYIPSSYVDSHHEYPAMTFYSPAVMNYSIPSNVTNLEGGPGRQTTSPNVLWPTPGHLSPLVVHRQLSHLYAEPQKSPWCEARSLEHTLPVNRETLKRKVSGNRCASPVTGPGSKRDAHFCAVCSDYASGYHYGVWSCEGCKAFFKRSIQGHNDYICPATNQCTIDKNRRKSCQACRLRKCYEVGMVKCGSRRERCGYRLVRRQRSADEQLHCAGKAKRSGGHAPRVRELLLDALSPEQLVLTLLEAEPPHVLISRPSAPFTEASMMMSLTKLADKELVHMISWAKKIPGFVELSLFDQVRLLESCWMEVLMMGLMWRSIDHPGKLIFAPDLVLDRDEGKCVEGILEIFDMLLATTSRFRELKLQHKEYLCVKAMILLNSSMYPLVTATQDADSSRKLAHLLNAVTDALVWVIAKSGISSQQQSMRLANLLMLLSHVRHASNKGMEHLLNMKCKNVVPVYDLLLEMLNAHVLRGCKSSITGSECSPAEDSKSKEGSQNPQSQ

Cytochrome P450 3A4, sequence (P08684 whole entry): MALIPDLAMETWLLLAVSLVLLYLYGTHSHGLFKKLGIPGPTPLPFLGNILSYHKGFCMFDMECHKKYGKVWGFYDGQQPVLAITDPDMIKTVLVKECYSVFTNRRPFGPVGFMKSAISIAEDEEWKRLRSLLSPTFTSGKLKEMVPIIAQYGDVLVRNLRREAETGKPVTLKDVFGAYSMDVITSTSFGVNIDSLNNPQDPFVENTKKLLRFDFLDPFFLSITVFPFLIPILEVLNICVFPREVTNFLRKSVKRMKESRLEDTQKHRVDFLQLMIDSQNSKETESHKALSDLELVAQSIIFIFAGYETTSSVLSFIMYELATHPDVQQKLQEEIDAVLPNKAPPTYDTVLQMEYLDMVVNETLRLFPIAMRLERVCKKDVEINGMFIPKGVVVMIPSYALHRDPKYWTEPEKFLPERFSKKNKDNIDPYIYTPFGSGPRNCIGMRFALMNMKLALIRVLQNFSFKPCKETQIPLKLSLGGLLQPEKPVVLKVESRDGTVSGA
Sodium-dependent noradrenaline transporter, sequence (P23975 whole entry): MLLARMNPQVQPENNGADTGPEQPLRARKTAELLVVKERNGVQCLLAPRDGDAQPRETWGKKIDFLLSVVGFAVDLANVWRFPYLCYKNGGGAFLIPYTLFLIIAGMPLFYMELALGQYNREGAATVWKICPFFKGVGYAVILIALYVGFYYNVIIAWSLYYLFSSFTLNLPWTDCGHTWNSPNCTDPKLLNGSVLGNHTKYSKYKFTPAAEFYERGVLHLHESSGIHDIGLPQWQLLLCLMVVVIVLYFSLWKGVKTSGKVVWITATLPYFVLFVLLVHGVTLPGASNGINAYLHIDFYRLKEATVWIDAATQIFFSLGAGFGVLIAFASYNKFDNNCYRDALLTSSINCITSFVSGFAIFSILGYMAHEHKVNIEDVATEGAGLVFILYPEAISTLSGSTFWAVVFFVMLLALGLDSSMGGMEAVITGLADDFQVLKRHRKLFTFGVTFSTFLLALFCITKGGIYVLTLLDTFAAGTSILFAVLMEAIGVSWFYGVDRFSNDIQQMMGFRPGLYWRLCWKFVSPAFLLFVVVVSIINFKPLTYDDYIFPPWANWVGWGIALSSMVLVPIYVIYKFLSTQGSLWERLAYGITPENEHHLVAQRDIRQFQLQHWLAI
Voltage-gated inwardly rectifying potassium channel KCNH2, sequence (Q12809 whole entry): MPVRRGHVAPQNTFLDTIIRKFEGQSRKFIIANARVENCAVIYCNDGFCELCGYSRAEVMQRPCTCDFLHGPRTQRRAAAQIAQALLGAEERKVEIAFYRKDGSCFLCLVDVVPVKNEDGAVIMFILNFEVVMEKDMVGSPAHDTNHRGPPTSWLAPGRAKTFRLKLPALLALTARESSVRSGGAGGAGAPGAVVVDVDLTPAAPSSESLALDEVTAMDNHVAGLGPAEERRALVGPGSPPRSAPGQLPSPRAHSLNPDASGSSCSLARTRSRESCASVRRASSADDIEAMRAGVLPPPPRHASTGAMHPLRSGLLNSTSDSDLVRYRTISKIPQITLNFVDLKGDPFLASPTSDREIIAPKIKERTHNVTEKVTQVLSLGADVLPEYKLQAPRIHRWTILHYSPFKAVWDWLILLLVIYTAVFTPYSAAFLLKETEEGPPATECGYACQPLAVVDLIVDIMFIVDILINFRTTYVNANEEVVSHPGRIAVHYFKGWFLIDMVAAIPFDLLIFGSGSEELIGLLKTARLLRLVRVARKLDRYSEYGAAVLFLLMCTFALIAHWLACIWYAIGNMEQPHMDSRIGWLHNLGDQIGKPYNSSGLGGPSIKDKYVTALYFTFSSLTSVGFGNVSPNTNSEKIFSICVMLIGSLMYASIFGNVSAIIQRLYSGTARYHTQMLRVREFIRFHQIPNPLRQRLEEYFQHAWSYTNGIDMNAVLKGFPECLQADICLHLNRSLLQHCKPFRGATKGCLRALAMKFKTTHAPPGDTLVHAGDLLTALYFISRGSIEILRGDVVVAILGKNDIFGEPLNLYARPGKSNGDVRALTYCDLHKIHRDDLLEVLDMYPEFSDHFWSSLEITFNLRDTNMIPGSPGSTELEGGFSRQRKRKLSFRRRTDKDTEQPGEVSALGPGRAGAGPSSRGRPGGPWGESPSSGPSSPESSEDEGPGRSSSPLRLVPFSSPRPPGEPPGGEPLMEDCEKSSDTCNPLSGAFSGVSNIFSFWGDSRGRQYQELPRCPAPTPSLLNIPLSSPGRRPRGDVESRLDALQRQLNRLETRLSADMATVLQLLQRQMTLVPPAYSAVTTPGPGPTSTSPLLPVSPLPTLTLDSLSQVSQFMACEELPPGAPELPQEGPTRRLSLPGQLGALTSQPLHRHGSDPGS
Cytochrome P450 2C9, sequence (P11712 whole entry): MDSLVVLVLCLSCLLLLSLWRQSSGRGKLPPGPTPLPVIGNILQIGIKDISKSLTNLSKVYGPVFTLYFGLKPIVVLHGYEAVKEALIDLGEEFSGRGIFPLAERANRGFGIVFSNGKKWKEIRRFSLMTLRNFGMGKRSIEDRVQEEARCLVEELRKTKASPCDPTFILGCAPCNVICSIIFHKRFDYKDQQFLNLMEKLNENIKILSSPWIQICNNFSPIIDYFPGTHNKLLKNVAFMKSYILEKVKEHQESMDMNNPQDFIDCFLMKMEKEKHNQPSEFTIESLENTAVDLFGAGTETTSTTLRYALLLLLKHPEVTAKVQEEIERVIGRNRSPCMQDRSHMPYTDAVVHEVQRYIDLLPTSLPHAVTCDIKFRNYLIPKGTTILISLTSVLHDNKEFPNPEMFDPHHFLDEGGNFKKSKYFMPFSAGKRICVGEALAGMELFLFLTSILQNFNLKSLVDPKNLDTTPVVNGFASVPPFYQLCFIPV
Cytochrome P450 2D6, sequence (P10635 whole entry): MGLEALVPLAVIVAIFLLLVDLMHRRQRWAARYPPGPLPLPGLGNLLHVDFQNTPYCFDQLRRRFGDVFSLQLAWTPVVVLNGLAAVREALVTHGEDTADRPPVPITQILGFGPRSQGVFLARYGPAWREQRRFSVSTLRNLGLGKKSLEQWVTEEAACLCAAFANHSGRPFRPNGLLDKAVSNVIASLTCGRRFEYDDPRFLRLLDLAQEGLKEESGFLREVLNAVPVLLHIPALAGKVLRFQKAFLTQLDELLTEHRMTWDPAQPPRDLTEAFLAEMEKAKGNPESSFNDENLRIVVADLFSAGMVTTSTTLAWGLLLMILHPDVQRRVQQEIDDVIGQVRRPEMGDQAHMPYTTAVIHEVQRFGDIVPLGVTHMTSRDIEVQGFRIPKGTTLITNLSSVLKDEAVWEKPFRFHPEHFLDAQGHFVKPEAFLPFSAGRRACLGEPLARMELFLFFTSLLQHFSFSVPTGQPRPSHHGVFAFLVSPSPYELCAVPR

CC1(C)[C@H]2CC[C@]1(C)C(=O)C2 [(-)-CAMPHOR]
Not Active: IC50 (Cytochrome P450 1A2) | Ki (Cytochrome P450 1A2) | IC50 (Estrogen receptor) | IC50 [1] | IC50 (Cytochrome P450 3A4) | Ki (Cytochrome P450 3A4) | IC50 (Cytochrome P450 2C9) | Ki (Cytochrome P450 2C9) | IC50 (Cytochrome P450 2D6) | Ki (Cytochrome P450 2D6) | IC50 (Glucocorticoid receptor) | IC50 [2] | IC50 [3] | Ki [3] | IC50 (Estrogen receptor beta)

CC(C)(C)NCC(O)c1ccc(O)c(CO)c1 (centres undefined) [ALBUTEROL]
Not Active: IC50 (Cytochrome P450 1A2) | Ki (Cytochrome P450 1A2) | IC50 (Estrogen receptor) | IC50 [1] | IC50 (Cytochrome P450 3A4) | Ki (Cytochrome P450 3A4) | IC50 (Cytochrome P450 2C9) | Ki (Cytochrome P450 2C9) | IC50 (Cytochrome P450 2D6) | Ki (Cytochrome P450 2D6) | IC50 (Glucocorticoid receptor) | IC50 [2] | IC50 [3] | Ki [3] | IC50 (Estrogen receptor beta)

Oc1c(I)cc(I)c2cccnc12 [IODOQUINOL]
Not Active: IC50 (Cytochrome P450 1A2) | Ki (Cytochrome P450 1A2) | IC50 (Estrogen receptor) | IC50 [1] | IC50 (Cytochrome P450 3A4) | Ki (Cytochrome P450 3A4) | IC50 (Cytochrome P450 2C9) | Ki (Cytochrome P450 2C9) | IC50 (Cytochrome P450 2D6) | Ki (Cytochrome P450 2D6) | IC50 (Glucocorticoid receptor) | IC50 [2] | IC50 [3] | Ki [3] | IC50 (Estrogen receptor beta)

NNC(=O)c1ccncc1 [ISONIAZID]
Not Active: IC50 (Cytochrome P450 1A2) | Ki (Cytochrome P450 1A2) | IC50 (Estrogen receptor) | IC50 [1] | IC50 (Cytochrome P450 3A4) | Ki (Cytochrome P450 3A4) | IC50 (Cytochrome P450 2C9) | Ki (Cytochrome P450 2C9) | IC50 (Cytochrome P450 2D6) | Ki (Cytochrome P450 2D6) | IC50 (Glucocorticoid receptor) | IC50 [2] | IC50 [3] | Ki [3] | IC50 (Estrogen receptor beta)

CO[C@@H]1[C@@H](O[C@@H]2O[C@H](C)[C@@H](O[C@H]3C[C@@](C)(O)[C@@H](OC(=O)CC(C)C)[C@H](C)O3)[C@H](N(C)C)[C@H]2O)[C@@H](CC=O)C[C@@H](C)[C@@H](O)/C=C/C=C/C[C@@H](C)OC(=O)C[C@H]1O [KITASAMYCIN]
Not Active: IC50 (Cytochrome P450 1A2) | Ki (Cytochrome P450 1A2) | IC50 (Estrogen receptor) | IC50 [1] | IC50 (Cytochrome P450 3A4) | Ki (Cytochrome P450 3A4) | IC50 (Cytochrome P450 2C9) | Ki (Cytochrome P450 2C9) | IC50 (Cytochrome P450 2D6) | Ki (Cytochrome P450 2D6) | IC50 (Glucocorticoid receptor) | IC50 [2] | IC50 [3] | Ki [3] | IC50 (Estrogen receptor beta)

CC(CCc1ccccc1)NCC(O)c1ccc(O)c(C(N)=O)c1 (centres undefined) [LABETALOL]
5.47: pIC50 ([1]; read-out: IC50)
Not Active: IC50 (Cytochrome P450 1A2) | Ki (Cytochrome P450 1A2) | IC50 (Estrogen receptor) | IC50 (Cytochrome P450 3A4) | Ki (Cytochrome P450 3A4) | IC50 (Cytochrome P450 2C9) | Ki (Cytochrome P450 2C9) | IC50 (Glucocorticoid receptor) | IC50 [3] | Ki [3] | IC50 (Estrogen receptor beta)
5.48: pKi ([1]; read-out: Ki)
6.59: pKi ([2]; read-out: Ki)
6.28: pIC50 ([2]; read-out: IC50)

Nc1ccc(S(=O)(=O)Nc2ccnn2-c2ccccc2)cc1 [SULFAPHENAZOLE]
Not Active: IC50 (Cytochrome P450 1A2) | Ki (Cytochrome P450 1A2) | IC50 (Estrogen receptor) | IC50 [1] | IC50 (Cytochrome P450 3A4) | Ki (Cytochrome P450 3A4) | IC50 (Cytochrome P450 2D6) | Ki (Cytochrome P450 2D6) | IC50 (Glucocorticoid receptor) | IC50 [2] | IC50 [3] | Ki [3] | IC50 (Estrogen receptor beta)

C=CC[C@@H]1/C=C(\C)C[C@H](C)C[C@H](OC)[C@H]2O[C@@](O)(C(=O)C(=O)N3CCCC[C@H]3C(=O)O[C@H](/C(C)=C/[C@@H]3CC[C@@H](O)[C@H](OC)C3)[C@H](C)[C@@H](O)CC1=O)[C@H](C)C[C@@H]2OC [TACROLIMUS ANHYDROUS]
Not Active: IC50 (Cytochrome P450 1A2) | Ki (Cytochrome P450 1A2) | IC50 (Estrogen receptor) | IC50 [1] | IC50 (Cytochrome P450 2C9) | Ki (Cytochrome P450 2C9) | IC50 (Cytochrome P450 2D6) | Ki (Cytochrome P450 2D6) | IC50 (Glucocorticoid receptor) | IC50 [2] | IC50 [3] | Ki [3] | IC50 (Estrogen receptor beta)

CN[C@H](CC(C)C)C(=O)N[C@H]1C(=O)N[C@@H](CC(N)=O)C(=O)N[C@H]2C(=O)N[C@H]3C(=O)N[C@H](C(=O)N[C@H](C(=O)O)c4cc(O)cc(O)c4-c4cc3ccc4O)[C@H](O)c3ccc(c(Cl)c3)Oc3cc2cc(c3O[C@@H]2O[C@H](CO)[C@@H](O)[C@H](O)[C@H]2O[C@H]2C[C@](C)(N)[C@H](O)[C@H](C)O2)Oc2ccc(cc2Cl)[C@H]1O [VANCOMYCIN]
Not Active: IC50 (Cytochrome P450 1A2) | Ki (Cytochrome P450 1A2) | IC50 (Estrogen receptor) | IC50 [1] | IC50 (Cytochrome P450 3A4) | Ki (Cytochrome P450 3A4) | IC50 (Cytochrome P450 2D6) | Ki (Cytochrome P450 2D6) | IC50 (Glucocorticoid receptor) | IC50 [2] | IC50 [3] | Ki [3] | IC50 (Estrogen receptor beta)
